Paper PMC11904721 (ACS Omega, 2025)

Molecular target: S. aureus DNA gyrase (Staphylococcus aureus, UniProt P0A0K8+P20831)
Assay: DNA gyrase supercoiling inhibition assay
Type: biochemical
Conditions: read-out: IC50(μM) (mean ± SEM) / S. aureusDNA gyrase supercoiling

IC50	Compound
11.7 ± 0.47 µM	CS(=O)(=O)N1SCC(=O)c2c1sc1c2SC2N(c3ccccc3)C(=O)c3ccccc3N12 (centres unmarked) [compound 4, 11-(methylsulfonyl)-6-phenyl-6,6a-dihydro-5H,9H-[1,2]thiazino[4″,3”:4′,5′]thieno[2′,3′:4,5]thiazolo[3,2-a]quinazoline-5,8(11H)-dione]
7.13 ± 0.28 µM	CCOC(=O)c1c(-n2cnnn2)sc2c1SC1N(c3ccccc3)C(=O)c3ccccc3N21 (centres unmarked) [compound 5, Ethyl 5-Oxo-6-phenyl-9-(1H-tetrazol-1-yl)-6,6a-dihydro-5H-thieno[2′,3′:4,5]thiazolo[3,2-a]quinazoline-8-carboxylate]
